Test results from patent US20200113954A1, “PHARMACEUTICAL AND FOOD COMPOSITION FOR THE TREATMENT OF VAGINAL AND INTESTINAL DYSBIOSIS” (priority 2018, published 2020).

Test system: vulvovaginal candidiasis
Assay: Third pilot study: open-label, Microbio+ capsules vs topical clotrimazole in women with uncomplicated vulvovaginal candidiasis
Format: in vivo, human
Excerpt: Study of the Effect of Microbio+ CAPSULES in Woman with Uncomplicated Vulvovaginal Candidiasis.
The primary endpoints are:
reduction in frequency of recurrences
re-equilibrium of the vaginal microflora (through assessment of clinical signs and Lactobacillus grade) in women with uncomplicated vulvovaginal candidiasis.
CLOTRIMAZOLE group: single administration of topical antifungal treatment with no maintenance cycle
Group B: Microbio+ for 15 consecutive days and maintenance cycle of 5 days a month in premenstrual phase for 3 months
Uncomplicated Vulvovaginal candidiasis;
Microscopic diagnosis of vulvovaginal candidiasis through wet mount or vaginal culture;
Not menopausal (defined as 12 or more months since last menstrual cycle at appropriate age);
The total study duration is 12 weeks.
Diagnosis (V0) and start of treatment
Day 15, day 30 and day 90 visits (V1, 2 and 3): At each visit, the patient was asked if they had taken the treatment regularly and if they had experienced any clinical symptoms or adverse events. A clinical examination, microscopic wet mount examination or (if available) cultural examination were performed to establish the effect of the treatment and the lactobacillus grade.
Primary outcomes: • Evaluation of the efficacy of Microbio+ in women with acute VVC: • 1. Clinical cure rate (resolution of symptoms) of VVC at 15, 30 and 90 days; • 2. Microbiological and microscopic cure of VVC (negative vaginal culture or absence of hyphae at wet mount); • 3. Recurrence rate (defined as the presence of symptoms or positive fungal culture or presence of hyphae at wet mount) in 3-month follow-up period.
Secondary outcomes: • Safety and tolerability of Microbio+ in adult women.

[1] = at 15 and 30 days, 20 patients per arm
[2] = within the 3 months of follow-up, 20 patients per arm

Clc1ccccc1C(c1ccccc1)(c1ccccc1)n1ccnc1 [clotrimazole, Clotrimazole]
clinical and microbiological cure in 1 month (1 month, FIG. 6 summary): 80% | clinical and microbiological cure, number of women [1]: 16 women | clinical and microbiological cure, percent of women [1]: 80% | symptomatic recurrences (symptom recurrence rate), percent of women [2]: 40% | symptomatic recurrences, number of women [2]: 8 women
